From patent publication US12403114B2, “Cannabinoid acid ester compositions and uses thereof” (EPM (IP), INC., priority 2019, dated 2025)

What was measured:
[1] = test system: Th17 (psoriasis) mediated inflammation; experiment: Ex vivo induced inflammation of human skin explants, Th17 stimulation; format: cell-based; details: topical at 40 h and 16 h prior to stimulation; degree comparable/improved to 1% hydrocortisone ointment (FIG. 7)
Description: (§1) The efficacy of CBDA-Me was compared to that of corticosteroid treatment in an ex vivo model of induced inflammation of human skin explants (see for example WO2019/063122 and WO2014/182655).
(§2) Freshly excised healthy human skin was dermatomed to an approximate thickness of 750±100 μm. The dermatomed skin was cut into 1 cm^2 sections and mounted onto static Franz cells with a dosing area of approximately 0.6 cm^2.
(§3) The experiment was performed as follows: • (i) Static Franz cells (n=4 per treatment), with an average surface area of approximately 0.6 cm^2 and a volume of approximately 2.0 mL were employed. • (ii) Skin was mounted onto the static Franz cell, Stratum corneum side up, and clamped into place. • (iii) The receptor compartment was filled with approximately 2 mL of warm (ca. 37° C.) Cornification media. • (iv) CBDA-Me or 1% Perrigo® hydrocortisone ointment (control) was applied topically at 40 hours and 16 hours prior to stimulation and was incubated at 37° C. with 5% C02. • (v) The contents of the receptor compartment from each cell was vacuum aspirated and replaced with 2 mL pre-warmed (ca. 37° C.) cornification media, containing either Th1 or Th17 stimulation cocktail. • (vi) Tissue explants were harvested at 24 hours post-stimulation and placed in RNAlater® solution for further processing. […]

[2] = test system: DSS induced acute colitis; experiment: DSS induced acute colitis mouse model, Example 11; format: in vivo, C57BL/6 mice
Description: The therapeutic effect of CBDA-Me on inflammatory bowel disease (IBD) was examined in an acute colitis mouse model. Colitis was induced in 10 weeks old female C57BL/6 mice using dextran sodium sulphate (DSS). Mice were fed for 8 days with 2% (wt/vol) DSS in their drinking water. Mice were administered (3 animals in each group) one of the following treatments by gavage: CBD (400 mg/kg), CBDA-Me (10 mg/kg or 40 mg/kg), DSS alone (untreated control), prednisone (90 mg/kg, control), none (healthy mice).
Weight loss was measured on days 1, 3, 5, 8, and 10.
Next, the mice were sacrificed and the length of their colons were measured.
Cytokine levels of IL-6 and TNFα were measured using ELISA kits (R&D Systems, USA). Colon TNFα (FIG. 10), blood IL-6 (FIG. 11), and mouse endoscopic index of colitis severity (METICS) scoring levels (FIG. 12) were lower in mice treated with CBDA-Me compared to CBD. Representative photos of colonoscopy can be seen in FIG. 13A-13E.

[3] = test system: endometriosis induced by implantation of rat uterine cornu on the mesenterium; experiment: In vivo rat endometriosis model, pain response to oxytocin; details: day 24; injected intra-peritoneally after 21 days; as compared to the control (saline)
Description: Endometriosis was induced by implantation of rat uterine comu on the mesenterium. The tissue was allowed to proliferate in vivo for 21 days. After 21 days, rats in the control group were injected intra-peritoneally with saline while rats in the experimental group were injected with CBDA-Me. Pain response to oxytocin was measured on day 24. The pain response decreased by 50% in the group treated with CBDA-Me as compared to the control.

[4] = test system: Human Endometrial Stromal Cell Line (SHT290); experiment: In vitro endometriosis model: attachment and proliferation of endometrial stromal cells; format: cell-based; details: added to the medium; dose dependent fashion
Description: Cultured cells from Human Endometrial Stromal Cell Line (SHT290) were used. CBDA-Me was added to the medium and the attachment of cells and their proliferation rate were measured.

[5] = test system: Th1 (chronic and acute atopic dermatitis) mediated inflammation; experiment: Ex vivo induced inflammation of human skin explants, Th1 stimulation; format: cell-based; details: topical at 40 h and 16 h prior to stimulation; degree comparable/improved to 1% hydrocortisone ointment (FIG. 6)
Description: as §1, §2, §3

[6] = test system: chronic colitis in IL-10 KO mice; experiment: Chronic colitis mouse model (IL-10 KO), Example 12; format: in vivo; details: IL-10 KO mice fed twice a day for 13 weeks
Description: Mice with targeted discruption of the IL-10 gene (IL-10 KO) and littermate wild-type controls (IL-10 WT) were used (see for example Scheinin et al., Clin. Exp. Immunol., 2003, 133:38-43). After 4 weeks of age mice were fed twice a day for 13 weeks with one of the following treatments: CBD, CBDA-Me, an anti-TNF antibody (control), none (untreated control mice). The CBDA-Me efficacy is compared to CBD and controls.
Cytokine levels of IL-1B and TNFα were measured using ELISA kits (R&D Systems, USA). Colon TNFα (FIG. 14), blood IL-1b (FIG. 15), and mouse endoscopic index of colitis severity (MEICS) scoring levels (FIG. 16) were lower in mice treated with CBDA-Me compared to CBD.

[7] = target: T1, serotonin 5-HT1A Receptor (Homo sapiens, UniProt P08908); details: CBDA activates the receptor; background statement; cited from earlier work
T1 sequence (P08908 1-422): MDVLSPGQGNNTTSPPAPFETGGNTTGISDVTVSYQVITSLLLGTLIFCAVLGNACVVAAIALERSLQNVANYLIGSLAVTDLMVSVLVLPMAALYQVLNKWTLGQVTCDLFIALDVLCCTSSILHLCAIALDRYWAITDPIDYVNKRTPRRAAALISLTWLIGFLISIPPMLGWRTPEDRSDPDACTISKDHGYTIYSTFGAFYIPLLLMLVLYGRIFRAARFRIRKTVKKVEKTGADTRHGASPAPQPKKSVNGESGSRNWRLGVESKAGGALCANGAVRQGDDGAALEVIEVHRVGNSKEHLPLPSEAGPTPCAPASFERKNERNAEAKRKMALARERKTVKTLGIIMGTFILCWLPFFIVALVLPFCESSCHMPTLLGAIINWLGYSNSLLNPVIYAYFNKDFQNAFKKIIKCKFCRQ

C=C(C)[C@@H]1CCC(C)=CC1c1c(O)cc(CCCCC)c(C(=O)OC)c1O (stereo in doubt) [EPM-301, cannabidiolic acid methyl ester]
Th17 mediated inflammation (IL17α, IL22, CXCL10, IL36g, SerpinB4 by RT-qPCR) [1]: inhibition | weight loss ([2]; 40 mg/kg by gavage, compared to CBD (400 mg/kg), days 1-10 (FIG. 8)): reduced | colon length ([2]; 40 mg/kg by gavage, versus CBD and untreated control mice, similar to prednisone (FIG. 9)): greater | mouse endoscopic index of colitis severity scoring ([2]; compared to CBD (FIG. 12)): lower | colon TNFα ([2]; compared to CBD, ELISA (FIG. 10)): lower | blood IL-6 ([2]; compared to CBD, ELISA (FIG. 11)): lower | decrease of pain response to oxytocin [3]: 50% | attachment of cells [4]: decrease | proliferation rate [4]: decrease | Th1 mediated inflammation (IFNγ, TNFα, IL1β, IL2, IL13 by RT-qPCR) [5]: inhibition | colon TNFα ([6]; compared to CBD (FIG. 14)): lower | blood IL-1b ([6]; compared to CBD (FIG. 15)): lower | mouse endoscopic index of colitis severity (MEICS) scoring ([6]; compared to CBD (FIG. 16)): lower

C=C(C)C1CCC(C)=CC1c1c(O)cc(CCCCC)c(C(=O)O)c1O (centres unmarked) [CBDA, 2,4-dihydroxy-3-[3-methyl-6-prop-1-en-2-ylcyclohex-2-en-1-yl]-6-pentylbenzoic acid]
affinity for the 5-HT1A receptor relative to CBD [7]: significantly greater
